The target in experiment [1] is T1, Muscarinic acetylcholine receptor M1 (Homo sapiens, UniProt P11229).
T1 sequence (P11229 whole entry): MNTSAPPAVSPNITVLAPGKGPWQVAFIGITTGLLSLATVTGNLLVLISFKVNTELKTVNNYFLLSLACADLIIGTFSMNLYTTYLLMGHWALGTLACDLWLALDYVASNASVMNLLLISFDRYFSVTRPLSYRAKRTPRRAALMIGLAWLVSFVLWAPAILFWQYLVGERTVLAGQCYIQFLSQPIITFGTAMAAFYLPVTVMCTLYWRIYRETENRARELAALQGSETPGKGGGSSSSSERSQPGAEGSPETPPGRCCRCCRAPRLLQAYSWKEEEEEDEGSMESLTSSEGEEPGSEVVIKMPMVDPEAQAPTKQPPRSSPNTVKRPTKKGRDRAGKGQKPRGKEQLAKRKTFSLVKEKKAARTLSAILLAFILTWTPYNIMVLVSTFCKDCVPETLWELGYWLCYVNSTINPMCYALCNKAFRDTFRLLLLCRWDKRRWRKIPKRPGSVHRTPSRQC
It is filed as functional.

The target of experiment [2] is Muscarinic acetylcholine receptor M3 (Homo sapiens, UniProt P20309).
The target in experiment [3] is T2, Alpha-1A adrenergic receptor (Homo sapiens, UniProt P35348).
T2 sequence (P35348 whole entry): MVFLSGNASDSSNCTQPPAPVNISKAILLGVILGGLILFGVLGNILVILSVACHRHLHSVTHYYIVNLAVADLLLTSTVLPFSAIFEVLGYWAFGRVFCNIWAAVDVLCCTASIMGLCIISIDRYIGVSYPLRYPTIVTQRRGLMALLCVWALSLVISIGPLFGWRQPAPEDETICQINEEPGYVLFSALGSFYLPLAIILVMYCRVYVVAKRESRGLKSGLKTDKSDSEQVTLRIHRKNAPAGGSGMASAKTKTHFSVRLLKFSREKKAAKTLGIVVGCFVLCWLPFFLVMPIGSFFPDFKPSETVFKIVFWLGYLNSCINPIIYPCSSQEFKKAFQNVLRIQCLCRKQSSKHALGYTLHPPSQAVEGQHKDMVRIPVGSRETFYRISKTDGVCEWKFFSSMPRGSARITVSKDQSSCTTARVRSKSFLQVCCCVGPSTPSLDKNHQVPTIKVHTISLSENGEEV
The format is functional, cell-based.

Experiment [4] has as its target T3, Beta-2 adrenergic receptor (Homo sapiens, UniProt P07550). The format is functional, cell-based.
Experiment [5] deals with Sodium-dependent dopamine transporter (Homo sapiens, UniProt Q01959).
Experiment [6] concerns the target T4, Muscarinic acetylcholine receptor M2 (Homo sapiens, UniProt P08172).
T4 sequence (P08172 whole entry): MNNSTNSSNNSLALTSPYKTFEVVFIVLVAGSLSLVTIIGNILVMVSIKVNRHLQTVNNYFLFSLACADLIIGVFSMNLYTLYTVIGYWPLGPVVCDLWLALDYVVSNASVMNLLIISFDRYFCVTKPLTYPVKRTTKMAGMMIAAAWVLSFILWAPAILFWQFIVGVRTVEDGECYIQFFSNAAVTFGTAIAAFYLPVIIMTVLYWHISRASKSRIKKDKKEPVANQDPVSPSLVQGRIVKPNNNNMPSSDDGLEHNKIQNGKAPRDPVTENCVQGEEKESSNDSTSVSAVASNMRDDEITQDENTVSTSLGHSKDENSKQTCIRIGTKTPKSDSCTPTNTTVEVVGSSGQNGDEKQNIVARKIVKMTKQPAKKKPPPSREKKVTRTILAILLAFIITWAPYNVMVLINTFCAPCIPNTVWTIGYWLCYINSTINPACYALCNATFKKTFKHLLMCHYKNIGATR
It is filed as functional, cell-based.

For another experiment, the target named is T5, Progesterone receptor (Homo sapiens, UniProt P06401).
T5 sequence (P06401 whole entry): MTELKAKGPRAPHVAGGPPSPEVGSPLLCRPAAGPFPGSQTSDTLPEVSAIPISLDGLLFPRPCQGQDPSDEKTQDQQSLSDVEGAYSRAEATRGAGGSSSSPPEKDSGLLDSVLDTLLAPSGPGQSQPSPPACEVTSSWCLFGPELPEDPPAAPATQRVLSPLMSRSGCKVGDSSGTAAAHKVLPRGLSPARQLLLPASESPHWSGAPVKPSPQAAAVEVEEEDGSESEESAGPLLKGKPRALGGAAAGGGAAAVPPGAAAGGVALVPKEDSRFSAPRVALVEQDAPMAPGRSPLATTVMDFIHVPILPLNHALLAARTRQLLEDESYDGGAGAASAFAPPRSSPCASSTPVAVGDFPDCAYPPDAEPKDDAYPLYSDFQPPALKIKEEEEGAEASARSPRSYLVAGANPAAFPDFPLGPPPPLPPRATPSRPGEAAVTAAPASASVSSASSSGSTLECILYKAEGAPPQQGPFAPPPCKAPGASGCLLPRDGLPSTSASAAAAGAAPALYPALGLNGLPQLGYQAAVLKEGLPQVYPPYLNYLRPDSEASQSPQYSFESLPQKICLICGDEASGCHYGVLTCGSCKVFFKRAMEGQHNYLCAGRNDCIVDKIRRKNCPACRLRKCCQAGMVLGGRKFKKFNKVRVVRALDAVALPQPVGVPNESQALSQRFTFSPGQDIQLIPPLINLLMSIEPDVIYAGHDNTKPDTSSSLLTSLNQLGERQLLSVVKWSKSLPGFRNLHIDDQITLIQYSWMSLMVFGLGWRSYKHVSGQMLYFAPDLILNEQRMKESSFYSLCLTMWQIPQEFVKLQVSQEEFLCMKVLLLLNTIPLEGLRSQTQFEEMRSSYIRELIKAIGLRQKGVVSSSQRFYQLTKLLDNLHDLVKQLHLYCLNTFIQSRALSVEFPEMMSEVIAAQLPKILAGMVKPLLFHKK
It is filed as functional.

Experiment [7] has as its target T3, Beta-2 adrenergic receptor.
For experiment [8], the target named is 5-hydroxytryptamine receptor 2B (Homo sapiens, UniProt P41595). It is filed as functional, cell-based.
Experiment [9] addresses T2, Alpha-1A adrenergic receptor. It is filed as functional, cell-based. This is another data set of the same source.

Experimental findings from ChEMBL document CHEMBL5291721, “A preclinical secondary pharmacology resource illuminates target-adverse drug reaction associations of marketed drugs” (Nat Commun, 2023) are described below.

Usually AC50 stands for the concentration at which the activity in the assay is half-maximal. High values mean weaker potency, low ones greater potency.
Also: assay procedure not described here.

Sequence of Sodium-dependent dopamine transporter (Q01959 whole entry): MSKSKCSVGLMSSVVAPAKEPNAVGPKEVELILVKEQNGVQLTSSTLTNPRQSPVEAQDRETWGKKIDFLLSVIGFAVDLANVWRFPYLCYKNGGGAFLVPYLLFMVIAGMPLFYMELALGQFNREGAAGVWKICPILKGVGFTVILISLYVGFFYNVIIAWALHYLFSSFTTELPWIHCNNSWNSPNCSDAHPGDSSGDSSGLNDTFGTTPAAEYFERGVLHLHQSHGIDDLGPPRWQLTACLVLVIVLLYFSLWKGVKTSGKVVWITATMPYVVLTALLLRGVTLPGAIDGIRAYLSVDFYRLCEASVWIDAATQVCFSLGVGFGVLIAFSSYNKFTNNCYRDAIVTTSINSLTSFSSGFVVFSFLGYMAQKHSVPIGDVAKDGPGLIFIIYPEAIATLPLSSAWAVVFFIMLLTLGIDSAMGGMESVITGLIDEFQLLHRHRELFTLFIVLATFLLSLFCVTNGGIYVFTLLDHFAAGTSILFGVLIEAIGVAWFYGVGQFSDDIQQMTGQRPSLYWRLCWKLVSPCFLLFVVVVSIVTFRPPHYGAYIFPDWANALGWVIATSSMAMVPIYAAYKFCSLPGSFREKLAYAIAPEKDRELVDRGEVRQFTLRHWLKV
T3 sequence (P07550 whole entry): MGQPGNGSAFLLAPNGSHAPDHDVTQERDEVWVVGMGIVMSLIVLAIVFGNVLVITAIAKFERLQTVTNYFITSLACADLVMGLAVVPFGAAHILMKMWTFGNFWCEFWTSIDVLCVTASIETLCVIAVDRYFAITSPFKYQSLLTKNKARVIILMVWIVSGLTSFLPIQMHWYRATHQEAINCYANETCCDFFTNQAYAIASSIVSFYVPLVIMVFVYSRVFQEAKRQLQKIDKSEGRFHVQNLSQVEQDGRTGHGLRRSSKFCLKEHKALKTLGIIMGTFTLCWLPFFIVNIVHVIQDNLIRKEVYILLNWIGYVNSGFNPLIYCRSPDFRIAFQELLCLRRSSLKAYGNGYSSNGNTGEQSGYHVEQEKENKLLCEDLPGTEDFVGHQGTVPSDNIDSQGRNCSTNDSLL
Sequence of 5-hydroxytryptamine receptor 2B (P41595 whole entry): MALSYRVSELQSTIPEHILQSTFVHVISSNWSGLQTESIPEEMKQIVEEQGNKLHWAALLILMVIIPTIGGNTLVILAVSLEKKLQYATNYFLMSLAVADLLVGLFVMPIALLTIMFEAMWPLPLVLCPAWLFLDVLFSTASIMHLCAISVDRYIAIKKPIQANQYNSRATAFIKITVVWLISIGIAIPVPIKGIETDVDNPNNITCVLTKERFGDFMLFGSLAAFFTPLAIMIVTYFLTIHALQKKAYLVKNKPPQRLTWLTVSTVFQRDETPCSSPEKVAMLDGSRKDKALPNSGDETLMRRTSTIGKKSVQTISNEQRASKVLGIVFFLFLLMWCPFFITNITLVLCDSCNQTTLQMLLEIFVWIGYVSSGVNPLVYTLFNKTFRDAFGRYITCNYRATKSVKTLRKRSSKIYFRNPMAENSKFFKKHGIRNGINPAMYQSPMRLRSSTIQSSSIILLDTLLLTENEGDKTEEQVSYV
Sequence of Muscarinic acetylcholine receptor M3 (P20309 whole entry): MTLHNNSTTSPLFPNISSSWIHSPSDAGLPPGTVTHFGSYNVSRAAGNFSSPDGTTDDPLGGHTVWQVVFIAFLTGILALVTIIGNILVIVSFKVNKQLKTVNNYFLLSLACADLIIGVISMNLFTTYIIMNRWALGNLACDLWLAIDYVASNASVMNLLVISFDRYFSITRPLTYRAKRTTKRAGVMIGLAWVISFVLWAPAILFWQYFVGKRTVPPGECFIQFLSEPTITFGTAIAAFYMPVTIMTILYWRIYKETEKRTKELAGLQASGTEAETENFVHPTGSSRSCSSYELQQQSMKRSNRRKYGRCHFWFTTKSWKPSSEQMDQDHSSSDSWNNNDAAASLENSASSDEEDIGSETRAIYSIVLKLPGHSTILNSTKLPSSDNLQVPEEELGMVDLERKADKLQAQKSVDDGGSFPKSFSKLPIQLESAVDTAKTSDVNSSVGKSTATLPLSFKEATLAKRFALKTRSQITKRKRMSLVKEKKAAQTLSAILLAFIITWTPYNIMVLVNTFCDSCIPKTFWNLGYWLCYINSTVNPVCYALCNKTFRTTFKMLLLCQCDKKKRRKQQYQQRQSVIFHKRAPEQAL

On to `CCOCC(O)COc1ccc(NC(=O)CC[S+](C)C)cc1` (configuration not stated), for which the AC50 in experiment [1], in experiment [2], in [3], in experiment [4], in experiment [5] and in [6] was above 30 µM in each case. Besides, the AC50 at Progesterone receptor is above 30 µM.

For `CCC[C@@]1(CCc2ccccc2)CC(O)=C([C@H](CC)c2cccc(NS(=O)(=O)c3ccc(C(F)(F)F)cn3)c2)C(=O)O1`, the half-maximal activity concentration (AC50) is above 30 µM in experiment [1]; above 30 µM in experiment [2]; above 30 µM in [3]; above 30 µM in experiment [4]; 27 µM in [5]; above 30 µM in experiment [6]. The same compound came in with an AC50 at Progesterone receptor of 13 µM.

Turning to `C=CC1=C(C(=O)O)N2C(=O)[C@@H](NC(=O)/C(=N\O)c3csc(N)n3)[C@H]2SC1`, the AC50 is above 10 µM in experiment [1]; above 30 µM in experiment [2]; above 30 µM in experiment [3]; above 30 µM in [4]; above 30 µM in experiment [5]; above 10 µM in [6]. This compound yielded an AC50 in [7] above 30 µM.

In the case of `CN(C)CCc1c[nH]c2ccc(CS(=O)(=O)N3CCCC3)cc12` [ALMOTRIPTAN], the AC50 in experiment [1], in [2], in [3], in [4], in experiment [5] and in experiment [6] was above 30 µM throughout. Also, the AC50 at Progesterone receptor is above 30 µM.

Regarding `CN1CC2c3ccccc3Oc3ccc(Cl)cc3C2C1` (configuration not stated) [ASENAPINE], the AC50 in [1] was above 30 µM; in experiment [2], above 30 µM; in experiment [3] it was above 30 µM; in experiment [4], above 30 µM; in [5], 11 µM; in experiment [6], 19 µM. Further, on Progesterone receptor, the AC50 is above 30 µM.

For `Cn1cnc2c(F)c(Nc3ccc(Br)cc3F)c(C(=O)NOCCO)cc21` [BINIMETINIB], the AC50 in experiment [1], in [2], in [3], in experiment [4], in experiment [5] and in experiment [6] was above 30 µM each time. The compound further gave an AC50 on Progesterone receptor above 30 µM.

On to `CN(C)CCOC(c1ccc(Cl)cc1)c1ccccn1` (configuration not stated) [CARBINOXAMINE], for which the half-maximal activity concentration (AC50) in experiment [1] was above 30 µM; in experiment [2] it was above 30 µM; in [3], above 30 µM; in experiment [4], above 30 µM; in experiment [5], 5.2 µM; in [6], above 30 µM. On Progesterone receptor, this compound had a half-maximal activity concentration (AC50) above 30 µM.

Regarding `O=C(Cc1cccs1)N[C@@H]1C(=O)N2C(C(=O)[O-])=C(C[n+]3ccccc3)CS[C@H]12` [CEPHALORIDINE], the AC50 in [1], in experiment [8], in experiment [2], in experiment [3], in experiment [4] and in experiment [6] was above 30 µM in each case.

Take `C[C@H](CCC(=O)O)[C@H]1CC[C@H]2[C@@H]3[C@H](O)C[C@@H]4C[C@H](O)CC[C@]4(C)[C@H]3CC[C@]12C` [CHENODIOL]: the AC50 in experiment [1], in experiment [2], in experiment [3], in [4], in [5] and in [6] was above 30 µM throughout.

`C[C@]12CCC(=O)C=C1CC[C@H]1[C@@H]3CC[C@](O)(C(=O)CO)[C@@]3(C)C[C@H](O)[C@@]12F` [FLUDROCORTISONE]: the AC50 is above 10 µM in experiment [1]; above 30 µM in [2]; above 30 µM in experiment [3]; above 30 µM in [4]; above 30 µM in [5]; above 30 µM in [6]. The AC50 in experiment [7] is above 10 µM.

In the case of `CCOC(=O)Nc1ccc(NCc2ccc(F)cc2)nc1N` [FLUPIRTINE], the AC50 in experiment [1], in experiment [2], in experiment [4], in [5], in [6] and in [7] was above 30 µM throughout.

Turning to `NCC1(CC(=O)O)CCCCC1` [GABAPENTIN], the concentration at half-maximal activity (AC50) was above 30 µM in experiment [8]; above 30 µM in experiment [3]; above 30 µM in experiment [4]; above 30 µM in experiment [5]; above 30 µM in experiment [6]; above 10 µM in [7]. The half-maximal activity concentration (AC50) (in experiment [9]; at Progesterone receptor) was above 30 µM in each case.

`OCCOCCN1CCN(C(c2ccccc2)c2ccc(Cl)cc2)CC1` (configuration not stated) [HYDROXYZINE]: the AC50 was above 10 µM in [1]; above 10 µM in [2]; above 30 µM in [3]; above 30 µM in experiment [4]; above 10 µM in [5]; above 10 µM in experiment [6]. The compound further displayed a half-maximal activity concentration (AC50) in experiment [7] above 10 µM.

As to `CC(=O)NC[C@H]1CN(c2ccc(N3CCOCC3)c(F)c2)C(=O)O1` [LINEZOLID], the concentration at half-maximal activity (AC50) (in experiment [1]; in experiment [2]; in experiment [3]; in experiment [4]; on Progesterone receptor) was above 30 µM in each case.

`O=C1[C@@H]2[C@H]3CC[C@H](C3)[C@@H]2C(=O)N1C[C@@H]1CCCC[C@H]1CN1CCN(c2nsc3ccccc23)CC1` [LURASIDONE]: the AC50 (in experiment [8]; in [4]; at Progesterone receptor) was above 30 µM each time.

As to `CS(=O)(=O)Nc1ccc([N+](=O)[O-])cc1Oc1ccccc1` [NIMESULIDE], the AC50 in experiment [8] was above 30 µM; in experiment [3] it was above 30 µM; in experiment [4] it was above 30 µM; in [5], 9 µM; in [6], above 30 µM; in experiment [9], above 30 µM. The compound also displayed an AC50 on Progesterone receptor above 30 µM.

Turning to `C#CCN(C)Cc1ccccc1` [PARGYLINE], the AC50 in experiment [1], in experiment [8], in experiment [2], in experiment [3], in experiment [4] and in experiment [6] was above 30 µM throughout.

As for `Cc1c(C)c2c(c(C)c1O)CCC(C)(COc1ccc(CC3SC(=O)NC3=O)cc1)O2` (configuration not stated) [TROGLITAZONE], the AC50 in experiment [8] is above 30 µM; in [3] it was above 30 µM; in experiment [4], above 30 µM; in [5], 23.7 µM; in [6] it was above 30 µM; in [9] it was 3.96 µM. The AC50 on Progesterone receptor stood at 16 µM.
